{"source": "patent EP0192327A2", "about": "“Use of phosphonoformic acid and its esters and salts for the manufacture of a medicament for the treatment of AIDS” (THE WELLCOME FOUNDATION LIMITED, priority 1985, dated 1986)", "key": {"[1]": {"test": "Toxicity: cytotoxicity in FE-10 cells", "type": "cell-based", "settings": "FE-10 (mouse modified 3T3) cells, no cytotoxicity up to 100µM, read-out: concentrations at which no cytotoxicity was observed"}, "[2]": {"test_system": "HTLV-III", "test": "Antiviral activity: protection of target T cells against the cytopathic effects of HTLV-III", "type": "cell-based", "settings": "Human immunodeficiency virus 1, T-cell; target T cells infected with HTLV-III; protection at 10µM and above; read-out: concentrations found to protect target T cells against the cytopathic effects of HTLV-III", "description": "The compound of formula (1) in which R^1, R^2 and R^3 each represent a hydrogen atom was tested and found to protect target T cells against the cytopathic effects of HTLV-III at concentrations of 10µM and above."}}, "data": [{"smiles": "O=C(O)P(=O)(O)O", "note": "[phosphonoformic acid]", "values": [{"measurement": "MNTC", "setting": "[1]", "value": "≥ 100", "unit": "µM"}, {"measurement": "minimal effective concentration", "setting": "[2]", "value": "≥ 10", "unit": "µM"}]}]}
